From PubChem BioAssay (NCI)
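Values below derive from 48-hour exposures of cells grown in 96-well plates, with endpoints linearly interpolated between the two concentrations bracketing the appropriate inhibition level. Definition used: TGI = concentration required for complete inhibition of growth.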

What was measured:
Assay in all cases: inhibition of tumour cell growth, NCI panel, 48 h
NCI-H23 lung = system: NCI-H23 lung
U251 CNS = system: U251 CNS
NCI-H226 lung = system: NCI-H226 lung
HL-60(TB) leukemia = system: HL-60(TB) leukemia
UO-31 renal = system: UO-31 renal
HOP-92 NSCLC = system: HOP-92 NSCLC
UACC-257 melanoma = system: UACC-257 melanoma
786-0 renal = system: 786-0 renal
OVCAR-5 ovarian = system: OVCAR-5 ovarian
RPMI-8226 leukemia = system: RPMI-8226 leukemia

SMILES: CCCCCCCCCCCOCCC1C(C(C)OCCN2CCCC2)OC2OC(C)(C)OC21 (stereo not drawn)
- TGI (NCI-H23 lung): 11 µM
- TGI (U251 CNS): 5.72 µM
- TGI (NCI-H226 lung): 24.5 µM
- TGI (HL-60(TB) leukemia): 3.36 µM
- TGI (UO-31 renal): 6.51 µM
- TGI (HOP-92 NSCLC): 4.75 µM
- TGI (UACC-257 melanoma): 3.78 µM
- TGI (786-0 renal): 5.88 µM
- TGI (OVCAR-5 ovarian): 8.94 µM
- TGI (RPMI-8226 leukemia): 3.17 µM

SMILES: CC(C)(C)OC(=O)N[C@@H](Cc1ccccc1)C(=O)N1CC[C@@H](C(=O)N2[C@H]3CC4CC[C@@]3(CS2(=O)=O)C4(C)C)N1
- TGI (NCI-H23 lung): > 100 µM
- TGI (U251 CNS): > 100 µM
- TGI (NCI-H226 lung): > 100 µM
- TGI (HL-60(TB) leukemia): > 100 µM
- TGI (HOP-92 NSCLC): > 100 µM
- TGI (UACC-257 melanoma): > 100 µM
- TGI (786-0 renal): > 100 µM
- TGI (OVCAR-5 ovarian): > 100 µM
- TGI (RPMI-8226 leukemia): > 100 µM

SMILES: C=C(Cl)C(=C)CCC(Cl)C(C)(C)Cl (stereo not drawn)
- TGI (NCI-H23 lung): > 100 µM
- TGI (U251 CNS): > 100 µM
- TGI (NCI-H226 lung): > 100 µM
- TGI (HL-60(TB) leukemia): > 100 µM
- TGI (UO-31 renal): > 100 µM
- TGI (HOP-92 NSCLC): > 100 µM
- TGI (UACC-257 melanoma): > 100 µM
- TGI (786-0 renal): > 100 µM
- TGI (OVCAR-5 ovarian): > 100 µM
- TGI (RPMI-8226 leukemia): > 100 µM

SMILES: COc1ccc(N2C(=O)CSC2c2cc(OC)c(OC)c(OC)c2)cc1 (stereo not drawn)
- TGI (NCI-H23 lung): > 100 µM
- TGI (U251 CNS): 39 µM
- TGI (NCI-H226 lung): > 100 µM
- TGI (HL-60(TB) leukemia): 69.8 µM
- TGI (UO-31 renal): 27.1 µM
- TGI (HOP-92 NSCLC): > 100 µM
- TGI (UACC-257 melanoma): 28.9 µM
- TGI (786-0 renal): 48.4 µM
- TGI (OVCAR-5 ovarian): 73.9 µM
- TGI (RPMI-8226 leukemia): > 100 µM

SMILES: CCOC(=O)c1c(C)n(CCN2CCN(C)CC2)c2ccc(OC)cc12
- TGI (NCI-H23 lung): > 100 µM
- TGI (U251 CNS): > 100 µM
- TGI (NCI-H226 lung): 72 µM
- TGI (HL-60(TB) leukemia): 58 µM
- TGI (UO-31 renal): > 100 µM
- TGI (HOP-92 NSCLC): 80.5 µM
- TGI (UACC-257 melanoma): 31.1 µM
- TGI (786-0 renal): > 100 µM
- TGI (OVCAR-5 ovarian): > 100 µM
- TGI (RPMI-8226 leukemia): 49.6 µM

SMILES: COc1ccc(/C=C(\C#N)c2nc(-c3cc4ccccc4oc3=O)cs2)cc1
- TGI (U251 CNS): 27.3 µM
- TGI (NCI-H226 lung): > 100 µM
- TGI (HL-60(TB) leukemia): > 100 µM
- TGI (UO-31 renal): 57.4 µM
- TGI (HOP-92 NSCLC): 36.2 µM
- TGI (UACC-257 melanoma): > 100 µM
- TGI (786-0 renal): 41.4 µM
- TGI (OVCAR-5 ovarian): > 100 µM
- TGI (RPMI-8226 leukemia): > 100 µM

SMILES: CCOc1cc(C=Nc2ccc(Oc3ccc(Cl)cc3)c(Cl)c2)ccc1O
- TGI (NCI-H23 lung): 45.6 µM
- TGI (U251 CNS): 44.4 µM
- TGI (NCI-H226 lung): 90.2 µM
- TGI (HL-60(TB) leukemia): 57.4 µM
- TGI (UO-31 renal): 30.3 µM
- TGI (HOP-92 NSCLC): 39.6 µM
- TGI (UACC-257 melanoma): 80.8 µM
- TGI (786-0 renal): 34 µM
- TGI (OVCAR-5 ovarian): 79.7 µM
- TGI (RPMI-8226 leukemia): 82.8 µM
